Measured values from ChEMBL document CHEMBL3045735, “Antibacterial and molecular docking studies of entagenic acid, a bioactive principle from seed kernel of Entada pursaetha DC” (2012).
Converted amounts (≈) assume the structure as drawn.

How the values were obtained:
Format in all cases: functional
Staphylococcus aureus [1] = assay: Antibacterial activity against Staphylococcus aureus NCIM-2079 after 24 hr by broth dilution method; settings: NCIM-2079, 24 h
Escherichia coli [2] = assay: Antibacterial activity against Escherichia coli NCIM-2065 after 24 hr by agar diffusion assay
Alcaligenes faecalis [3] = assay: Antibacterial activity against Alcaligenes faecalis NCIM-2262 after 24 hr by broth dilution method; settings: NCIM-2262, 24 h
Pseudomonas aeruginosa [4] = assay: Antibacterial activity against Pseudomonas aeruginosa NCIM-2036 after 24 hr by agar diffusion assay
Pseudomonas aeruginosa [5] = assay: Antibacterial activity against Pseudomonas aeruginosa NCIM-2036 after 24 hr by broth dilution method; settings: NCIM-2036, 24 h
Klebsiella aerogenes [6] = assay: Antibacterial activity against Enterobacter aerogenes NCIM 2036 after 24 hr by broth dilution method; settings: NCIM-2036, 24 h
Bacillus cereus [7] = assay: Antibacterial activity against Bacillus cereus NCIM-2155 after 24 hr by agar diffusion assay
Escherichia coli [8] = assay: Antibacterial activity against Escherichia coli NCIM-2065 after 24 hr by broth dilution method; settings: NCIM-2065, 24 h
Klebsiella aerogenes [9] = assay: Antibacterial activity against Enterobacter aerogenes NCIM 2036 after 24 hr by agar diffusion assay
Proteus vulgaris [10] = assay: Antibacterial activity against Proteus vulgaris NCIM-2027 after 24 hr by agar diffusion assay
Proteus vulgaris [11] = assay: Antibacterial activity against Proteus vulgaris NCIM-2027 after 24 hr by broth dilution method; settings: NCIM-2027, 24 h
Alcaligenes faecalis [12] = assay: Antibacterial activity against Alcaligenes faecalis NCIM-2262 after 24 hr by agar diffusion assay
Bacillus subtilis [13] = assay: Antibacterial activity against Bacillus subtilis NCIM-2063 after 24 hr by agar diffusion assay
Bacillus cereus [14] = assay: Antibacterial activity against Bacillus cereus NCIM-2155 after 24 hr by broth dilution method; settings: NCIM-2155, 24 h
Staphylococcus aureus [15] = assay: Antibacterial activity against Staphylococcus aureus NCIM-2079 after 24 hr by agar diffusion assay
Bacillus subtilis [16] = assay: Antibacterial activity against Bacillus subtilis NCIM-2063 after 24 hr by broth dilution method; settings: NCIM-2063, 24 h

## CC1(C)CC[C@]2(C(=O)O)[C@H](O)[C@H](O)[C@]3(C)C(=CC[C@@H]4[C@@]5(C)CC[C@H](O)C(C)(C)[C@@H]5CC[C@]43C)[C@@H]2C1 [ENTAGENIC ACID]
Staphylococcus aureus [1]
  MIC: 100 µg/mL (≈ 205 µM)
Escherichia coli [2]
  diameter of the inhibition zone (DIZ): 13 mm
Alcaligenes faecalis [3]
  MIC: 150 µg/mL (≈ 307 µM)
Pseudomonas aeruginosa [4]
  diameter of the inhibition zone (DIZ): 15 mm
Pseudomonas aeruginosa [5]
  MIC: 150 µg/mL (≈ 307 µM)
Klebsiella aerogenes [6]
  MIC: 300 µg/mL (≈ 614 µM)
Bacillus cereus [7]
  diameter of the inhibition zone (DIZ): 22 mm
Escherichia coli [8]
  MIC: 250 µg/mL (≈ 512 µM)
Klebsiella aerogenes [9]
  diameter of the inhibition zone (DIZ): 6.5 mm
Proteus vulgaris [10]
  diameter of the inhibition zone (DIZ): 13.5 mm
Proteus vulgaris [11]
  MIC: 250 µg/mL (≈ 512 µM)
Alcaligenes faecalis [12]
  diameter of the inhibition zone (DIZ): 15 mm
Bacillus subtilis [13]
  diameter of the inhibition zone (DIZ): 18 mm
Bacillus cereus [14]
  MIC: 100 µg/mL (≈ 205 µM)
Staphylococcus aureus [15]
  diameter of the inhibition zone (DIZ): 17.5 mm
Bacillus subtilis [16]
  MIC: 100 µg/mL (≈ 205 µM)

## CN[C@@H]1[C@H](O[C@H]2[C@H](O[C@H]3[C@H](O)[C@@H](O)[C@H](N=C(N)N)[C@@H](O)[C@@H]3N=C(N)N)O[C@@H](C)[C@]2(O)C=O)O[C@@H](CO)[C@H](O)[C@H]1O [STREPTOMYCIN]
Escherichia coli [2]
  diameter of the inhibition zone (DIZ): 18.42 mm
Pseudomonas aeruginosa [4]
  diameter of the inhibition zone (DIZ): 21.15 mm
Bacillus cereus [7]
  diameter of the inhibition zone (DIZ): 20.53 mm
Klebsiella aerogenes [9]
  diameter of the inhibition zone (DIZ): 19.38 mm
Proteus vulgaris [10]
  diameter of the inhibition zone (DIZ): 24.36 mm
Alcaligenes faecalis [12]
  diameter of the inhibition zone (DIZ): 22.37 mm
Bacillus subtilis [13]
  diameter of the inhibition zone (DIZ): 22.33 mm
Staphylococcus aureus [15]
  diameter of the inhibition zone (DIZ): 19.41 mm
